This test concerns MPTP-lesioned marmoset. Nature of the test: L-DOPA-induced dyskinesia in MPTP-treated marmoset model of Parkinson's disease. The following applies: for Median total dyskinesia scores compared to animals treated with L-DOPA and vehicle / Animals in which dyskinesia was completely abolished: antagonist 10 mg/kg i.p. with L-DOPA 8 mg/kg p.o.; for Median total dyskinesia scores compared to animals treated with L-DOPA and vehicle: cumulative scores; for Animals in which dyskinesia was completely abolished: n=6. It counts as in vivo, common marmosets (Callithrix jacchus). As to the method: The effect of the selective mu opioid receptor antagonist Cyprodime on dyskinesia was assessed in a 1-methyl-4-phenyl-1,2,3,6-tetrahydropyridine (MPTP)-treated marmoset model of Parkinson's disease.
Six adult common marmosets (Callithrix jacchus) were obtained from a closed colony bred at Manchester University, BSU. This study was conducted in the U.K. in accordance with the requirements of The Animals (Scientific Procedures) Act, 1986. The animals were kept in controlled housing conditions, with constant temperature (25° C.), relative humidity (50%) and 12 h light/dark cycles (08.00-20.00 light on). The animals had free access to food (Masuri primate diet-E, Scientific Dietary Services, UK), fresh fruit supplements and water. Marmosets were rendered parkinsonian by treatment with 1-methyl-4-phenyl-1,2,3,6-tetrahydropyridine (MPTP) hydrochloride (Sigma, 2 mg/kg s.c. for 5 consecutive days). […] The animals were allowed to recover for a period of 14 weeks until behavioural assessment was commenced.
Dyskinesia was established in these animals by twice daily treatment with L-DOPA (10 mg/kg p.o. as Madopar Dispersible®) for 3 weeks.
Opioid antagonists, or vehicle, were administered with L-DOPA to assess the effects of adjunctive treatment on L-DOPA-induced dyskinesia and the anti-parkinsonian efficacy of L-DOPA. All animals received all treatments. Treatments in any one animal were separated by at least three days. Naltrexone (non-selective antagonist) was administered at a dose of 10 mg/kg (i.p), cyprodime (mu selective antagonist) was administered at a dose of 10 mg/kg (i.p.), naltrindole (delta selective antagonist) was administered at a dose of 10 mg/kg (i.p.), nor-binaltorphimine (nor-BNI, kappa selective antagonist) was administered at a dose of 20 mg/kg (i.p.). Drugs or vehicle were administered with L-DOPA treatment (8 mg/kg p.o.). Behaviour was assessed for 3 hours post drug administration.
A battery of behavioural assessments was performed to assess the intensity, range and speed of movements. In addition, postural abnormalities and dyskinesia were assessed. • 1) Parkinsonian disability—non-parametric measures based on the following scales • i) Motor activity (repertoire) score: 0=no movement at all, 1=movement of head or trunk, 2=movement of limbs but no locomotion, on the floor of the cage, 3=on wall of cage/perch, movement of head or trunk, 4=on wall of cage/movement of limbs but no locomotion, 5=walking around/eating on floor of cage, 6=hopping on floor of cage, 7=climbing onto wall of cage or perch, 8=climbing up and down the walls of the cage or along perch, 9=running, jumping, climbing between cage walls/perch/roof, uses limbs through a wide range of motion and activity. • ii) Bradykinesia score: 0=normal speed of movement, 1=moderate slowing of movement, difficulty initiating and maintaining movement 2=akinetic, unable to move (maximum score in 30 minutes=12). • iii) Posture score: 0=normal, upright, holds head up, 1=impaired, crouched, face down. (maximum score in 30 minutes=6). • 2) Dyskinesia • 0=Absent • 1=Mild, fleeting • 2=Moderate, not interfering with normal activity • 3=Marked, at times interfering with normal activity • 4=Severe, continuous, replacing normal activity
Parameters 1 and 2 were assessed every 30 minutes throughout a six hour period by post-hoc analysis of videotape recordings. Assessment was made by an observer blinded to the treatment administered.
Non-parametric measures of mobility, bradykinesia, posture and dyskinesia were cumulated and compared between treatments with a Friedman's test with post hoc Dunn's test where appropriate.

Where [1] appears, read: L-DOPA 8 mg/kg p.o., MPTP-treated marmosets.

SMILES strings stand for the structures. Bounds are passed on as bounds.

As for `N[C@@H](Cc1ccc(O)c(O)c1)C(=O)O` [L-DOPA], under setting [1], the “Parkinsonian symptoms after L-DOPA treatment” value is given as “reversed” and the “Time to commencement of dyskinesia after L-DOPA administration” value is not above 5 min.
As to `COc1cccc2c1[C@]13CCN(CC4CC4)[C@H](C2)[C@]1(OC)CCC(=O)C3` [cyprodime], the “Animals in which dyskinesia was completely abolished” value was determined as 100%. For the same molecule, the “Dyskinesia exhibited by each treated animal” value (10 mg/kg i.p. with L-DOPA 8 mg/kg p.o., individual animals) is reported as “minimal or no dyskinesia”. Besides, under “n=6, FIG. 1”, the “Median total dyskinesia scores compared to animals treated with L-DOPA and vehicle” value is given as “markedly reduced”.
In the case of `O=C1CC[C@@]2(O)[C@H]3Cc4ccc(O)c5c4[C@@]2(CCN3CC2CC2)[C@H]1O5` [naltrexone], the “Animals in which dyskinesia was completely abolished” value is on record as 33%. In addition, the “Median total dyskinesia scores compared to animals treated with L-DOPA and vehicle” value (n=6, FIG. 1) is reported as “reduced”.
In the case of `Oc1ccc2c3c1O[C@H]1c4[nH]c5ccccc5c4C[C@@]4(O)[C@@H](C2)N(CC2CC2)CC[C@]314` [naltrindole], the “Animals in which dyskinesia was completely abolished” value was determined as 50%. Also, the “Median total dyskinesia scores compared to animals treated with L-DOPA and vehicle” value (n=6, FIG. 1) is given as “reduced”.
Turning to `Oc1ccc2c3c1O[C@H]1c4[nH]c5c(c4C[C@@]4(O)[C@@H](C2)N(CC2CC2)CC[C@]314)C[C@@]1(O)[C@H]2Cc3ccc(O)c4c3[C@@]1(CCN2CC1CC1)[C@H]5O4` [nor-BNI, nor-binaltorphimine], the “Median total dyskinesia scores (effect on L-DOPA-induced dyskinesia)” value (antagonist 20 mg/kg i.p. with L-DOPA 8 mg/kg p.o., n=6, FIG. 1) was “no effect”.

The values are drawn from patent US8198294B2, “Treatment of dyskinesia” (Motac Neuroscience Limited, priority 2001, dated 2012).
